Drawing on patent EP1166781A1, “PROTEASOME INHIBITORS” (KYOWA HAKKO KOGYO CO., LTD., priority 1999, dated 2000), this text covers IC50 for 45 compounds.

Read-outs that look alike come from different tables or passages of the source.

For orientation: IC50 means the concentration that gives 50% inhibition.

Test [1] deals with Human colon cancer, WiDr cells. Description: Antiproliferative activity in WiDr cells (MTT, 72 hours). Format: cell-based. Here is the method: Human colon cancer, WiDr cells suspended in MEM media containing 10% of fetal calf serum were seeded in 96-well microtiter plates at 2 x 10^3cells/well, and precultured in an incubator with 5% of CO2 at 37°C for 24 hours. Then, each compound diluted appropriately with the media was added into the well at 50 µl/well. At this time, a final concentration of each compound is up to 100 µmol/l or 1 µmol/l. The cells were cultured in the incubator with 5% of CO2 at 37°C for additional 72 hours. At 5 hours before the culturing was terminated, MTT [3-(4,5-dimethylthiazol-2-yl)-2,5-[…] bromide] dissolved in the medium at a final concentration of 1 mg/mL was added into the well at 50 µl/well. After the culturing, dimethyl sulfoxide was added to the well at 150 µl/well, and the plate was vigorously stirred using a plate mixer to dissolve crystals of MTT-formazan completely. […]

In test [2] the target is T1, proteasome (Homo sapiens, UniProt P28074).
T1 construct: The obtained high molecular fraction (molecular weight >500K) was used as an enzyme solution for the detection of proteasome activity; endogenous in cells; host or cells: HeLa S3 cells: homogenate, 100,000G supernatant, >500K fraction from Centricon-500
Briefly: Proteasome inhibitory activity (Suc-Leu-Leu-Val-Tyr-AMC cleavage, crude enzyme solution from HeLa S3 cell extract). Format: biochemical. As to the method: 1 x 10^9 of HeLa S3 cells were dispersed in 5 ml of the buffer A [20 mmol/L of Tris (pH 7.5), 2 mmol/L of ATP, 5 mmol/L of MgCl2, 1 mmol/L of dithiothreitol (DTT)], and then homogenized at 4°C. The supernatant centrifuged at 100,000G was concentrated by a Centricon-500 (supplied by Amicon) and diluted with 2.5 ml of the buffer B [25 mmol/L of Tris/HCl (pH 7.5), 2 mmol/L of ATP, 1 mmol/L of DTT, 20% of glycerol]. The obtained high molecular fraction (molecular weight >500K) was used as an enzyme solution for the detection of proteasome activity. Suc-Leu-Leu-Val-Tyr-AMC [Suc: Succinyl; AMC: Aminomethylcoumarin](supplied by Peptide Institute, Inc.) was used as a substrate for measuring inhibitory activity for proteasome (stored as a 2 mmol/L DMSO solution). The reaction was carried out by the following method using 96-well microtiter plates. To 96 µl of a reaction buffer [20 mmol/L of Tris/HCl (pH 8), 0.5 mmol/L of EDTA, 0.04% of sodium dodecylsulfate (SDS)] were added 1 µl of a drug solution (DMSO) and 2 µl of an enzyme solution followed by adding 1 µl of a substrate solution thereto, and then the mixture was incubated at 37°C for one hour. […]

The mark [3] stands for this setting: crude proteasome fraction (>500K) from HeLa S3 cells, substrate Suc-Leu-Leu-Val-Tyr-AMC, 37°C for one hour, read-out: IC50.
The mark [4] stands for this setting: crude proteasome fraction (>500K) from HeLa S3 cells, substrate Suc-Leu-Leu-Val-Tyr-AMC, 37°C for one hour.

Take `CCC(C)C1C(=O)OC1C(=O)NC1CC1CC(NC(=O)C(C)N(Cc1ccccc1)Cc1ccccc1)C(=O)OCc1ccccc1` (centres unmarked) [Compound 43]: the IC50 in test [1] was determined as 3900 nM; in test [2] (setting [3]), 14 nM.
The like results for `CCC(C)C1C(=O)OC1C(=O)NC1CC1CC(NC(=O)C(C)NC(=O)OC(C)(C)C)C(=O)OCCO` (centres unmarked) [Compound 16] were, in that order, 950 nM and 52 nM.
For `CC(C)CC1C(=O)OC1C(=O)NCCCC(NC(=O)OC(C)(C)C)C(=O)OCc1ccccc1` (centres unmarked) [Compound 58], the IC50 in test [2] (setting [3]) amounted to 26 nM.
Take `CCCCNC(=O)C(CC1CC1NC(=O)C1OC(=O)C1C(C)CC)NC(=O)C(C)N` (centres unmarked) [Compound 25]: the IC50 in test [1] amounted to 59 nM; in test [2] it was 24 nM.
Consider `CCC(C)C1C(=O)OC1C(=O)NC1CC1CC(NC(=O)C(C)NC(=O)OC(C)(C)C)C(=O)OCC1CCCCC1` (centres unmarked) [Compound 14], for which the figures for the IC50 in test [1] and in test [2] (setting [4]) were 300 nM and 18 nM, respectively.
In the case of `CCC(C)C1C(=O)OC1C(=O)NC1CC1CC(NC(=O)C(C)NC(=O)OC(C)(C)C)C(=O)NCc1ccccc1` (centres unmarked) [Compound 19], the IC50 in test [1] turned out to be 190 nM; in test [2] (setting [3]), 6.2 nM.
For the compound `CCC(C)C1C(=O)OC1C(=O)NC1CC1CC(NC(=O)C(C)NC(=O)OC(C)(C)C)C(=O)OCC[Si](C)(C)C` (centres unmarked) [Compound 15], the concentration for half-maximal inhibition (IC50) in test [1] amounted to 200 nM; in test [2], 18 nM.
`CCC(C)C1C(=O)OC1C(=O)NC1CC1CC(NC(=O)C(C)NC(=O)OC(C)(C)C)C(=O)OCc1cccc(F)c1` (centres unmarked) [Compound 8]: in test [2] (setting [3]), the IC50 came out at 14 nM.
On to `CCC(C)C1C(=O)OC1C(=O)NC1CC1CC(NC(=O)C(C)NC=O)C(=O)OCc1ccccc1` (centres unmarked) [Compound 34], for which the IC50 in test [1] is 1200 nM; in test [2] (setting [3]) it was 38 nM.
Take `CCC(C)C1C(=O)OC1C(=O)NC1CC1CC(NC(=O)C(C)NC(=O)OC(C)(C)C)C(=O)N[C@@H](C)C(=O)OCc1ccccc1` (some centres unmarked) [Compound 27]: the IC50 in test [2] turned out to be 3 nM.
Turning to `CCC(C)C1C(=O)OC1C(=O)NC1CC1CC(NC(=O)C(C)N)C(=O)O` (centres unmarked) [UCK14A1, reference compound], the IC50 in test [1] was more than 30000 nM; in test [2] (setting [3]), 400 nM.
The like results for `CCC(C)C1C(=O)OC1C(=O)NC1CC1CC(NC(=O)C(C)NC(=O)OC(C)(C)C)C(=O)OC(C)(C)C` (centres unmarked) [Compound 13] were, in that order, 490 nM and 30 nM.
The like results for `CCC(C)C1C(=O)OC1C(=O)NC1CC1CC(NC(=O)C(C)NC(=O)c1cnccn1)C(=O)OCc1ccccc1` (centres unmarked) [Compound 36] were, in that order, 62 nM and 21 nM.
In the case of `CCC(C)C1C(=O)OC1C(=O)NCCCC(NC(=O)C(C)NC(=O)OC(C)(C)C)C(=O)OCc1ccccc1` (centres unmarked) [Compound 45], the IC50 is 300 nM in test [1] and 6 nM in test [2].
Regarding `CCC(C)C1C(=O)OC1C(=O)NC1CC1CC(NC(=O)C(C)NC(=O)OC(C)(C)C)C(=O)OCOC` (centres unmarked) [Compound 17], the IC50 was determined as 180 nM in test [1] and 19 nM in test [2] (setting [3]).
In the case of `CC(C)C[C@@H]1C(=O)O[C@H]1C(=O)NCCC[C@H](NC(=O)[C@H](C)NC(=O)OC(C)(C)C)C(=O)OCc1ccccc1` [Compound 59], in test [2] (setting [3]), the IC50 amounted to 33 nM.
The same measure, in the same setting: the same measure for `CC(C)C[C@@H]1C(=O)O[C@H]1C(=O)Nc1cc(C[C@H](NC(=O)OC(C)(C)C)C(=O)OCc2ccccc2)ccc1OCc1ccccc1` [Compound 82]: 100 nM; for `CCC(C)C1C(=O)OC1C(=O)NC1CC1CC(NC(=O)C(C)N)C(=O)OC` (centres unmarked) [Compound 2]: 70 nM.
`CCC(C)C1C(=O)OC1C(=O)NC1CC1CC(NC(=O)C(C)NC(=O)NC(C)C)C(=O)OCc1ccccc1` (centres unmarked) [Compound 31]: the IC50 is 113 nM in test [1] and 11 nM in test [2] (setting [3]).
For `CC(C)CC1C(=O)OC1C(=O)NCCCC(NC(=O)C(C)N)C(=O)OCc1ccccc1` (centres unmarked) [Compound 60], the IC50 in test [2] (setting [3]) amounted to 40 nM.
Same read-out and setting: with `CC(C)CC1C(=O)OC1C(=O)NCCCCCC(=O)OCc1ccccc1` (centres unmarked) [Compound 55] the figure was 77 nM.
With `CCC(C)C1C(=O)OC1C(=O)NC1CC1CC(NC(=O)C(C)NC(=O)c1ccccc1)C(=O)OCc1ccccc1` (centres unmarked) [Compound 33], the results for the concentration for half-maximal inhibition (IC50) in test [1] and in test [2] (setting [3]) were 76 nM and 15 nM, respectively.
The like results for `CCC(C)C1C(=O)OC1C(=O)NC1CC1CC(NC(=O)C(C)NC(C)=O)C(=O)OCc1ccccc1` (centres unmarked) [Compound 35] were, in that order, 93 nM and 27 nM.
The like results for `CCC(C)C1C(=O)OC1C(=O)NC1CC1CC(NC(=O)C(C)NC(=O)OC(C)(C)C)C(=O)OCc1ccccc1` (centres unmarked) [Compound 3] were, in that order, 37 nM and 15 nM.
The like results for `CC(C)C[C@@H]1C(=O)O[C@H]1C(=O)NCCCC[C@H](NC(=O)[C@H](C)N)C(=O)OCc1ccccc1` [Compound 50] were, in that order, 1800 nM and 30 nM.
As to `CC(C)CC1C(=O)OC1C(=O)NCCCCC(NC(=O)OC(C)(C)C)C(=O)OCc1ccccc1` (centres unmarked) [Compound 48], the IC50 in test [2] (setting [3]) turned out to be 50 nM.
Take `CCC(C)C1C(=O)OC1C(=O)NC1CC1CC(NC(=O)C(C)NC(=O)OC(C)(C)C)C(=O)OC` (centres unmarked) [Compound 1]: the values for the IC50 in test [1] and in test [2] were 790 nM and 50 nM, respectively.
In the case of `CC(C)CC1C(=O)OC1C(=O)NCCCCCNC(=O)C1C(OCc2ccccc2)CCN1C(=O)OC(C)(C)C` (centres unmarked) [Compound 54], the IC50 in test [2] (setting [3]) came to 47 nM.
Same read-out and setting: the same measure for `CCC(C)C1C(=O)OC1C(=O)NC1CC1CC(NC(=O)C(C)NC(=O)OCc1ccc(Br)cc1)C(=O)OCc1ccccc1` (centres unmarked) [Compound 29]: 5 nM.
`CCC(C)C1C(=O)OC1C(=O)NC1CC1CC(NC(=O)C(C)N)C(=O)OCc1ccc2ccccc2c1` (centres unmarked) [Compound 6]: the concentration for half-maximal inhibition (IC50) in test [1] worked out at 40 nM; in test [2] (setting [3]), 38 nM.
The like results for `CCC(C)C1C(=O)OC1C(=O)NC1CC1CC(NC(=O)C(C)NC(=O)OC(C)(C)C)C(=O)N1CCOCC1` (centres unmarked) [Compound 26] were, in that order, 160 nM and 13 nM.
The like results for `CC(C)C[C@@H]1C(=O)O[C@H]1C(=O)NC1CC1CC(NC(=O)OC(C)(C)C)C(=O)NCc1cccc2ccccc12` (some centres unmarked) [Compound 90] were, in that order, 40000 nM and 22 nM.
The like results for `CCC(C)C1C(=O)OC1C(=O)NC1CC1CC(NC(=O)C(C)N)C(=O)NCc1ccccc1` (centres unmarked) [Compound 20] were, in that order, 57 nM and 11 nM.
For `CC(C)CC1C(=O)OC1C(=O)NCCCCC(NC(=O)C(C)NC(=O)OC(C)(C)C)C(=O)OCc1ccccc1` (centres unmarked) [Compound 49], the IC50 in test [2] (setting [3]) turned out to be 30 nM.
`CCC(C)C1C(=O)OC1C(=O)NC1CC1CC(NC(=O)C(C)NC(=S)NCc1ccccc1)C(=O)OCc1ccccc1` (centres unmarked) [Compound 32]: the IC50 in test [1] stood at 433 nM; in test [2] (setting [3]), 5 nM.
The like results for `CCC(C)C1C(=O)OC1C(=O)NC1CC1CC(NC(=O)C(C)NC(=O)OC(C)(C)C)C(=O)OCc1ccc2ccccc2c1` (centres unmarked) [Compound 5] were, in that order, 30 nM and 6.2 nM.
Take `CC(C)CC1C(=O)OC1C(=O)NCCCCCNC(=O)C(C)NC(=O)OC(C)(C)C` (centres unmarked) [Compound 53]: the IC50 in test [2] (setting [3]) came to 250 nM.
For the compound `CCC(C)C1C(=O)OC1C(=O)NC1CC1CC1NC(=O)C(C)NC1=O` (centres unmarked) [Compound 44], the IC50 in test [2] (setting [4]) is 47 nM.
Turning to `CCC(C)C1C(=O)OC1C(=O)NC1CC1CC(NC(=O)C(C)NC(=O)OC(C)(C)C)C(=O)OCc1c2ccccc2cc2ccccc12` (centres unmarked) [Compound 7], the IC50 is 700 nM in test [1] and 17 nM in test [2] (setting [3]).
In test [2], `CCC(C)C1C(=O)OC1C(=O)NC1CC1CC(NC(=O)C(C)N1C(=O)c2ccccc2C1=O)C(=O)OCc1ccccc1` (centres unmarked) [Compound 42] registered an IC50 of 22 nM.
With `CCC(C)C1C(=O)OC1C(=O)NC1CC1CC(NC(=O)C(C)NC(=O)OC(C)(C)C)C(=O)NNc1ccccc1` (centres unmarked) [Compound 23], the IC50 in test [1] was 410 nM; in test [2], 17 nM.
On to `COc1ccc(CC(NC(=O)OC(C)(C)C)C(=O)OCc2ccccc2)cc1NC(=O)C1OC(=O)C1CC(C)C` (centres unmarked) [Compound 81], for which the IC50 in test [2] (setting [4]) came to 500 nM.
Consider `CC(C)CC1C(=O)OC1C(=O)NCCCCC(NC(=O)C(C)NC(=O)OC(C)(C)C)C(=O)NCc1cccc2ccccc12` (centres unmarked) [Compound 75], for which, in test [2] (setting [3]), the IC50 is 1 nM.
As to `CC(C)=C[C@@H]1C(=O)O[C@H]1C(=O)NCCCC[C@H](NC(=O)[C@H](C)NC(=O)OC(C)(C)C)C(=O)NCc1cccc2ccccc12` [Compound 74], in test [2] (setting [3]), the IC50 was 3 nM.
Regarding `CC(C)CC1C(=O)OC1C(=O)NCC(NC(=O)OC(C)(C)C)C(=O)OCc1ccccc1` (centres unmarked) [Compound 47], in test [2] (setting [4]), the IC50 is 150 nM.
